Assay results published in ChEMBL document CHEMBL4428035, “Urea derivates of ursolic, oleanolic and maslinic acid induce apoptosis and are selective cytotoxic for several human tumor cell lines” (Eur J Med Chem, 2016).

Experiments:
HT-29 = experiment: Cytotoxicity against human HT-29 cells assessed as reduction in cell proliferation after 96 hrs by sulforhodamine B assay; format: functional, cell-based; conditions: HT-29, 96 h
MCF7 = experiment: Cytotoxicity against human MCF7 cells assessed as reduction in cell proliferation after 96 hrs by sulforhodamine B assay; format: functional, cell-based; conditions: MCF7, 96 h
SW-1736 = experiment: Cytotoxicity against human SW1736 cells assessed as reduction in cell proliferation after 96 hrs by sulforhodamine B assay; format: functional, cell-based; conditions: SW-1736, 96 h
A549 = experiment: Cytotoxicity against human A549 cells assessed as reduction in cell proliferation after 96 hrs by sulforhodamine B assay; format: functional, cell-based; conditions: A549, 96 h
A2780 = experiment: Cytotoxicity against human A2780 cells assessed as reduction in cell proliferation after 96 hrs by sulforhodamine B assay; format: functional, cell-based; conditions: A2780, 96 h
NIH3T3 = experiment: Cytotoxicity against mouse NIH/3T3 cells assessed as reduction in cell proliferation after 96 hrs by sulforhodamine B assay; format: ADME, cell-based; conditions: NIH3T3, 96 h
518A2 = experiment: Cytotoxicity against human 518A2 cells assessed as reduction in cell proliferation after 96 hrs by sulforhodamine B assay; format: functional, cell-based; conditions: 518A2, 96 h
FaDu = experiment: Cytotoxicity against human FADU cells assessed as reduction in cell proliferation after 96 hrs by sulforhodamine B assay; format: functional, cell-based

Row | SMILES | EC50 (HT-29) [µM] | EC50 (MCF7) [µM] | EC50 (SW-1736) [µM] | EC50 (A549) [µM] | EC50 (A2780) [µM] | EC50 (NIH3T3) [µM] | EC50 (518A2) [µM] | EC50 (FaDu) [µM]
1 | CC(=O)O[C@H]1C[C@]2(C)[C@H]3CC=C4[C@@H]5[C@@H](C)[C@H](C)CC[C@]5(C(=O)Nc5ccccc5)CC[C@@]4(C)[C@]3(C)CC[C@H]2C(C)(C)[C@H]1OC(C)=O | 7.3 | 16.4 | 4.4 | 8.9 | 3.3 | > 60 | 3.4 | 
2 | CC(=O)O[C@H]1C[C@]2(C)[C@H]3CC=C4[C@@H]5CC(C)(C)CC[C@]5(C(=O)O)CC[C@@]4(C)[C@]3(C)CC[C@H]2C(C)(C)[C@H]1OC(C)=O | 18.8 | 15.1 | > 30 | 29.1 | 7.2 | 8 |  | > 30
3 | COCO[C@@H]1C[C@]2(C)[C@H]3CC=C4[C@@H]5CC(C)(C)CC[C@]5(C(=O)NCc5ccccc5)CC[C@@]4(C)[C@]3(C)CC[C@H]2C(C)(C)[C@H]1OCOC | 15.9 | 15.2 | 18.2 | 17.3 |  | 15 | 22.1 | 17.9
4 | CC(=O)O[C@@H]1C[C@]2(C)[C@H]3CC=C4[C@@H]5CC(C)(C)CC[C@]5(C(=O)O)CC[C@@]4(C)[C@]3(C)CC[C@H]2C(C)(C)[C@H]1OC(C)=O |  | 16.6 |  |  |  |  | 23.1 | 17.8
5 | CC(=O)O[C@H]1C[C@]2(C)[C@H]3CC=C4[C@@H]5CC(C)(C)CC[C@]5(C(=O)O)CC[C@@]4(C)[C@]3(C)CC[C@H]2C(C)(C)[C@@H]1OC(C)=O | 16.5 | 14.8 | 23.4 | 15.2 | 6.7 | 10 | 11.7 | 9.5
6 | CC(=O)O[C@H]1C[C@]2(C)[C@H]3CC=C4[C@@H]5[C@@H](C)[C@H](C)CC[C@]5(NC(=O)Oc5ccccc5)CC[C@@]4(C)[C@]3(C)CC[C@H]2C(C)(C)[C@H]1OC(C)=O | 7.6 | 23.3 | 5.5 | 10.1 | 1.6 | > 30 | 3.1 | 
7 | CC(=O)O[C@H]1C[C@]2(C)[C@H]3CC=C4[C@@H]5CC(C)(C)CC[C@]5(NC(=O)c5ccccc5)CC[C@@]4(C)[C@]3(C)CC[C@H]2C(C)(C)[C@H]1OC(C)=O | 6.8 | 16.8 | 6.8 | 11.1 | 3.1 | 12.2 | 3.5 | 
8 | CC1(C)CC[C@]2(C(=O)NCc3ccccc3)CC[C@]3(C)C(=CC[C@@H]4[C@@]5(C)C[C@H]6OC(C)(C)O[C@@H]6C(C)(C)[C@@H]5CC[C@]43C)[C@@H]2C1 | 25.9 | 14.6 | > 30 | 26.4 | 12.9 | 21.6 | 29.8 | > 30
9 | CC(=O)O[C@H]1C[C@]2(C)[C@H]3CC=C4[C@@H]5[C@@H](C)[C@H](C)CC[C@]5(NC(=O)c5ccccc5)CC[C@@]4(C)[C@]3(C)CC[C@H]2C(C)(C)[C@H]1OC(C)=O | 11.7 | > 30 | 14.9 | 16.4 | 6.7 | 14.1 | 7.9 | 
10 | CC(=O)O[C@@H]1[C@H](OC(C)=O)C[C@]2(C)[C@H]3CC=C4[C@@H]5CC(C)(C)CC[C@]5(C(=O)O)CC[C@@]4(C)[C@]3(C)CC[C@H]2C1(C)C | 21.4 | 17.6 | 22 | 20.4 | 10.5 | 14.2 | 15.3 | 17.3
11 | CC(=O)O[C@@H]1C[C@]2(C)[C@H]3CC=C4[C@@H]5CC(C)(C)CC[C@]5(C(=O)NCCc5ccccc5)CC[C@@]4(C)[C@]3(C)CC[C@H]2C(C)(C)[C@H]1OC(C)=O | 6.1 | 5.8 | 5.2 | 9.2 |  | 9.5 | 1.2 | 2.8
12 | CC(=O)O[C@H]1C[C@]2(C)[C@H]3CC=C4[C@@H]5[C@@H](C)[C@H](C)CC[C@]5(NC(=O)Nc5ccccc5)CC[C@@]4(C)[C@]3(C)CC[C@H]2C(C)(C)[C@H]1OC(C)=O | 16 | 19.6 | 6.8 | 12.4 | 1.5 | > 120 | 2.5 | 
13 | CO[C@@H]1C[C@]2(C)[C@H]3CC=C4[C@@H]5CC(C)(C)CC[C@]5(C(=O)NCc5ccccc5)CC[C@@]4(C)[C@]3(C)CC[C@H]2C(C)(C)[C@H]1OC | 14.3 | 14.6 | 20.5 | 15.3 |  | 14.7 | 18.1 | 17.2
14 | CO[C@@H]1C[C@]2(C)[C@H]3CC=C4[C@@H]5CC(C)(C)CC[C@]5(C(=O)NCc5ccccc5)CC[C@@]4(C)[C@]3(C)CC[C@H]2C(C)(C)[C@H]1O | 10.6 | 11.7 | 18.1 | 21.5 |  | 11.9 | 12.6 | 11.4
15 | CC1(C)CC[C@]2(C(=O)NCc3ccccc3)CC[C@]3(C)C(=CC[C@@H]4[C@@]5(C)C[C@H]6OCO[C@@H]6C(C)(C)[C@@H]5CC[C@]43C)[C@@H]2C1 | 20.8 | 16.7 | > 30 | > 30 |  | 13.9 | > 30 | > 30
16 | CC1(C)CC[C@]2(C(=O)NCc3ccccc3)CC[C@]3(C)C(=CC[C@@H]4[C@@](C)(CC=O)[C@H](C(C)(C)C=O)CC[C@]43C)[C@@H]2C1 | 8.3 | 5.4 | 7.5 | 6.9 |  | 12.2 | 6 | 7
17 | CC(=O)O[C@@H]1C[C@]2(C)[C@H]3CC=C4[C@@H]5CC(C)(C)CC[C@]5(C(=O)Nc5ccccc5)CC[C@@]4(C)[C@]3(C)CC[C@H]2C(C)(C)[C@H]1OC(C)=O | 2.9 | 3.1 | 2.9 | 9.5 |  | 16 | 0.7 | 1.4
18 | CC1(C)CC[C@]2(C(=O)NCc3ccccc3)CC[C@]3(C)C(=CC[C@@H]4[C@@]5(C)C[C@@H]6O[C@@H]6C(C)(C)[C@@H]5CC[C@]43C)[C@@H]2C1 | 26.6 | 8.6 | > 30 | 25.8 | 8.6 | 20.5 | 15.7 | > 30
19 | CC(=O)O[C@H]1C[C@]2(C)[C@H]3CC=C4[C@@H]5CC(C)(C)CC[C@]5(C(=O)Nc5ccccc5)CC[C@@]4(C)[C@]3(C)CC[C@H]2C(C)(C)[C@H]1OC(C)=O | 2.6 | 1.8 | 2.7 | 4.9 | 1.3 | > 60 | 2 | 
